Experimental data published in patent EP2667887B1, “PHARMACEUTICAL COMPOSITION COMPRISING THE PEPTIDE GLU-ASP-GLY AND USE FOR TREATING HELICOBACTER PYLORI INDUCED GASTRODUODENAL DISEASES” («Garmonia», Ltd., priority 2011, dated 2012).

How the values were obtained:
[1] = test system: gastric epithelial cell mitochondria; assay: Mitochondrial GFP expression in gastric epithelium after ulcer induction (confocal microscopy, in vivo study); parameters: species or system Sprague Dawley rats; settings: both methods, three doses
Protocol: The study was carried out on 90 male Sprague Dawley rats (180-220 g) randomly subdivided into 9 groups (10 animals per group): • Group 1 - intact rats (saline solution) • Group 2 - modeled ulcer + saline solution • Group 3 (6 subgroups) - modeled ulcer + H-Glu-Asp-Gly-OH • Group 4 - modeled ulcer + Klacid antibiotic
Ulcer was modeled by three-time administration (in 4 hours) in the rat stomach of cysteamine-HCL (Aldrich, Milwannee, WI) by means of a probe in the dose of 25 mg per 100 g of body weight. The ulcer, approximately 28 mm^2 in size, appeared at the boundary between antral and fundal segments of the stomach 12 hours after the last administration. Simultaneously with the first administration of cysteamine-HCL a Helicobacter pylori culture (Curtin Matheson Scientific Inc, strain Cag J117, 100 microbial cells) was administered in the rat stomach through the same probe.
A means on the basis of the pharmaceutical composition comprising the studied peptide H-Glu-Asp-Gly-OH was administered subcutaneously in the dose of 1 µg per kg of animal body weight (group 3a), 2,5 µg per kg of body weight (group 3b) and 10 µg per kg of body weight (group 3c) in 0,5 ml of saline solution daily, for 5 days from the occurrence of the stomach ulcer.
The means on the basis of the pharmaceutical composition comprising the studied peptide H-Glu-Asp-Gly-OH was administered intragastrically (through a probe) in the dose of 1 µg per kg of animal body weight (group 3d), 2,5 µg per kg of body weight (group 3e) and 10 µg per kg of body weight (group 3f) in 0,5 ml of saline solution daily, for 5 days from the occurrence of the stomach ulcer. […]
The status of isolated mitochondria was assessed using immunofluorescent confocal laser microscopy. […]
Confocal microscopy of mitochondria with optical density evaluation was carried out in an inverted confocal microscope Olympus Fluoview CM FV300-IX70 using an apochromatic lens 606 UPlan (Olympus). A 488 nm excitation wave of argon laser was used in each chamber to specify mito-GFP fluorescence that verifies the structure of mitochondria.

[2] = Acute toxicity study, single administration; type: in vivo, white mongrel male mice; settings: mice, single intramuscular administration, 1-5 mg/kg; dose exceeds the therapeutic dose by more than 5000 times
Protocol: (§1) General toxicity of peptide H-Glu-Asp-Gly-OH was studied in accordance with the requirements of "Manual for Experimental (Pre-Clinical) Study of New Pharmacological Substances" (2000): acute toxicity in case of a single administration of the preparation, as well as subacute and chronic toxicity in case of a long-term administration of the peptide.
Acute toxicity study was carried out on 66 white mongrel male mice with body weight 20-22 g. The animals were randomly subdivided into 6 equal groups. The preparation was administered to the animals once, intramuscularly in the doses of 1, 2, 3, 4, 5 mg/kg in 0,25 ml of sterile 0,9% NaCl solution. Control animals were treated with 0,9% NaCl solution in the same volume.

[3] = Chronic toxicity study, 6 months; type: in vivo, male guinea pigs; settings: guinea pigs
Text: as §1
Chronic toxicity was studied for 6 months basing on the duration of the recommended clinical administration of the preparation on 92 male guinea pigs with body weight 310-350 g. Experimental animals were treated with the peptide daily, once a day, intramuscularly for 6 months in the doses of 1 µg/kg, 0,1 mg/kg, 1 mg/kg in 0,5 ml of sterile 0,9% NaCl solution. Control animals received sterile 0,9% NaCl solution according to the same scheme and in the same volume. The following indices were identified in the peripheral blood of the animals using traditional methods: quantity of erythrocytes, hemoglobin, reticulocytes, thrombocytes, leukocytes, leukocyte formula, erythrocyte sedimentation rate (ESR), erythrocyte resistance. Further, total protein was identified in the blood serum by the Lowry method, as well as potassium and sodium using plasma spectrophotometry method. […]

Substance: glutamyl-aspartyl-glycine [H-Glu-Asp-Gly-OH]
- mitochondrial GFP expression (optical density), 7th day ([1]; 7th day after ulcer induction, intact 3.12±0.22, ulcer 0.54±0.02): 2.86±0.21 conv. units
- mitochondrial GFP expression (optical density), 15th day ([1]; 15th day after ulcer induction, intact 3.17±0.18, ulcer 0.87±0.04): 3.03±0.16 conv. units
- mitochondrial GFP expression (optical density), 21st day ([1]; 21st day after ulcer induction, intact 3.19±0.18, ulcer 1.67±0.09): 3.16±0.18 conv. units
- acute toxicity [2]: does not cause toxic reactions
- chronic toxicity ([3]; intramuscularly daily for 6 months, 1 µg/kg, 0,1 mg/kg, 1 mg/kg, doses exceed the therapeutic one by 100-1000 times): no side effects
- effect on the ESR, erythrocyte resistance and biochemical indices of the blood serum ([3]; long-term administration): No significant effect
